Data published in patent US20260125375A1 (Pfizer Inc., priority 2022, published 2026).
Read-outs that look alike come from different tables or passages of the source.

Legend:
[1] = target: T1, C-CBL (Homo sapiens, UniProt P22681); assay: Jurkat HiBit-IL2 assay (CBL-B KO), reporter cell line expressing C-CBL only; type: cell-based; conditions: geometric mean, read-out: CBL-B KO EC50 (nM) GMean
T1 construct: endogenous in cells; host or cells: Jurkat HiBit-IL2 reporter cells, CBL-B knocked out by CRISPR
Text: (§1) Jurkat HiBit-IL2 Assay (WT, c-CBL KO, CBL-B KO)
(§2) The purpose of the Jurkat HiBit-IL2 assay is to evaluate the effect of the inhibition of CBL-B and/or C-CBL on TCR/CD28 stimulated interleukin-2 (IL-2) secretion.
(§3) The expression of IL-2 can then be accurately measured by HiBit luciferase assay. Further, C-CBL or CBL-B was knocked out by CRISPR respectively in this Jurkat HiBit-IL2 reporter cell line to create reporter cell line expressing CBL-B only (c-CBL knockout (KO)) or C-CBL only (CBL-B KO).
(§4) All three reporter cell lines were maintained in RPMI-1640 media with GlutaMax, 10% fetal bovine serum, 100 units/ml of penicillin, and 100 μg/ml of streptomycin at 37° C., 5% CO2, at a cell density 1×10e5-2×10e6 viable cells/ml. Serial diluted compounds in DMSO (40 nl/well, final 0.1% DMSO in assay cell culture) were plated into 384-well white-wall clear-bottom cell culture plates. Reporter cells were pelleted and resuspended in fresh cell culture medium to 0.66×10e6 cells/ml and added to the assay plate at 30 μl/well (20,000 cells/well). The cells were incubated with compounds for 1 hour at 37° C., 5% CO2. 10 μl/well of anti-CD3 antibody (OKT3) and anti-CD28 antibody (CD28.2) prediluted in fresh cell culture medium at 4× final concentration (anti-CD3 mAb: 4 μg/ml; anti-CD28 mAb: 8 μg/ml) was added into the cells (final concentration of anti-CD3 mAb: 1 μg/ml; anti-CD28 mAb: 2 μg/ml). The cells were cultured for another 4 hours at 37° C., 5% CO2. The Nano-Glo HiBiT Lytic Reagent was prepared following the manufacturer's protocol. 20 ul/well of the Nano-Glo HiBiT Lytic Reagent was added into the reporter cell culture assay plate and incubated at room temperature (20-25° C.) for 15 minutes. The plates were read on a Perkin-Elmer EnVision plate reader with 0.1 second integration time. Data were normalized to “Fold of Effect” with the anti-CD3 and anti-CD28 antibodies only samples as the baseline activation level and EC50 was calculated. The EC50 (nM) values reported are the geometric means (GMean) of the number of tests conducted.

[2] = target: T2, CBL-B (residues 36-427) (Homo sapiens, UniProt Q13191); assay: Ligand Displacement Assay (LDA), HTRF competitive binding against BODIPY-labeled fluorescent tracer, CBL-B; conditions: geometric mean of the number of tests, read-out: CBL-B Ki (nM) GMean
T2 construct: Purified CBL-B (residues 36-427) and C-CBL (residues 46-435) proteins from baculovirus-infected insect cells; made in house; host or cells: baculovirus-infected insect cells
Method in brief: (§5)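 Insect-cell (baculovirus) protein, N-term AviTag biotinylated via BirA, captured by SA-Tb; BODIPY tracer, KD measured per protein. 3-fold serial dilutions, duplicate, […], 2% DMSO final. Ki (nM) = geomean of runs.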

[3] = target: T3, CBL-B (Homo sapiens, UniProt Q13191); assay: Jurkat HiBit-IL2 assay (c-CBL KO), reporter cell line expressing CBL-B only; type: cell-based; conditions: geometric mean, read-out: C-CBL KO EC50 (nM) GMean
T3 construct: endogenous in cells; host or cells: Jurkat HiBit-IL2 reporter cells, C-CBL knocked out by CRISPR
Text: as §1, §2, §3, §4

[4] = target: T4, C-CBL (residues 46-435) (Homo sapiens, UniProt P22681); assay: Ligand Displacement Assay (LDA), HTRF competitive binding against BODIPY-labeled fluorescent tracer, C-CBL; conditions: geometric mean of the number of tests, read-out: C-CBL Ki (nM) GMean
T4 construct: Purified CBL-B (residues 36-427) and C-CBL (residues 46-435) proteins from baculovirus-infected insect cells; made in house; host or cells: baculovirus-infected insect cells
T4 sequence (P22681 46-435): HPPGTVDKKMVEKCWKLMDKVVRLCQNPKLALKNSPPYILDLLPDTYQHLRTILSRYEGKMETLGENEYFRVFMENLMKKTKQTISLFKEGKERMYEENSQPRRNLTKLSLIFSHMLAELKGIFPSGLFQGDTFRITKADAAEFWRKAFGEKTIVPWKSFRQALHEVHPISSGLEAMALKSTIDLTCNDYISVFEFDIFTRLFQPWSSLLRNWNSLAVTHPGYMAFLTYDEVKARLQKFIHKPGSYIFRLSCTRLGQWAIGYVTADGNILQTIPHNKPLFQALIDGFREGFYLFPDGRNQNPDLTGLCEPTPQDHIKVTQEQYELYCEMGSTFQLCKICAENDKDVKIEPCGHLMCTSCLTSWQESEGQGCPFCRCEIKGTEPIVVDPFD
Method in brief: as §5

[5] = CBL-B KO (C-CBL only), anti-CD3/anti-CD28 stimulation 4 hours, Table 16a
[6] = CBL-B KO (expressing C-CBL only), Table 16b (further repetition)
[7] = C-CBL KO (expressing CBL-B only), Table 16b (further repetition)
[8] = c-CBL KO (CBL-B only), anti-CD3/anti-CD28 stimulation 4 hours, Table 16a

| SMILES | EC50 [1, 5] | EC50 [1, 6] | Ki [2] | EC50 [3, 7] | EC50 [3, 8] | Ki [4] |
| --- | --- | --- | --- | --- | --- | --- |
| CC(NCCO)c1nc(C(F)(F)F)cc2c(-c3cccc([C@H](c4nncn4C)C4CCCCC4)c3)n[nH]c12 (single isomer, unassigned) [Example C39] | 496 nM | 615 nM | 7.4 nM | 108 nM | 35 nM | 73.2 nM |
| CC(NCCO)c1nc(C(F)(F)F)cc2c(-c3cccc([C@H](c4nncn4C)C4CCCCC4)c3)n[nH]c12 (single isomer, unassigned) [Example C40] | 1360 nM | 1560 nM | 7.1 nM | 214 nM | 47 nM | 95.9 nM |
| CC(NCCO)c1nc(C(F)(F)F)cc2c(-c3cccc([C@H](c4nncn4C)C4CCC4)c3)n[nH]c12 (single isomer, unassigned) [Example C41] | 327 nM | 877 nM | 3.2 nM | 154 nM | 42 nM | 30.1 nM |
| CC(NCCO)c1nc(C(F)(F)F)cc2c(-c3cccc([C@H](c4nncn4C)C4CCC4)c3)n[nH]c12 (single isomer, unassigned) [Example C42] | 316 nM | 635 nM | 2.5 nM | 94 nM | 29 nM | 28.2 nM |
| C[C@H](CO)N[C@@H](C)c1nc(C(F)(F)F)cc2c(-c3cccc([C@H](c4nncn4C)C4CCC4)c3)n[nH]c12 (single isomer, unassigned) [Example C43] | 912 nM | 554 nM | 6.7 nM | 61 nM | 51 nM | 87.7 nM |
| C[C@H](CO)N[C@H](C)c1nc(C(F)(F)F)cc2c(-c3cccc([C@H](c4nncn4C)C4CCC4)c3)n[nH]c12 (single isomer, unassigned) [Example C44] | 253 nM | 356 nM | 2.2 nM | 60 nM | 21 nM | 25 nM |
| CC(NCC(C)(C)O)c1nc(C(F)(F)F)cc2c(-c3cccc([C@H](c4nncn4C)C4CCC4)c3)n[nH]c12 (single isomer, unassigned) [Example C45] | 102 nM | 115 nM | 2.5 nM | 30 nM | 14 nM | 22.1 nM |
| C[C@@H](N[C@H]1CCC[C@@H]1O)c1nc(C(F)(F)F)cc2c(-c3cccc([C@H](c4nncn4C)C4CCC4)c3)n[nH]c12 (single isomer, unassigned) [Example C46] | 392 nM | 330 nM | 9.4 nM | 61 nM | 36 nM | 67.8 nM |
| CC(N[C@H](C)[C@H](C)O)c1nc(C(F)(F)F)cc2c(-c3cccc([C@H](c4nncn4C)C4CCC4)c3)n[nH]c12 (single isomer, unassigned) [Example C48] | 493 nM | 466 nM | 2.5 nM | 67 nM | 20 nM | 33 nM |
